This is an account of results in patent EP2216326B1, “Biologically acceptable choline compounds and their use as tensides” (Universität Regensburg, priority 2009, dated 2010).

Read-outs that look alike come from different tables or passages of the source.

Data set [1] can be described thus: Solubility in organic solvents. Type of data set: physicochemical. As to conditions: Chloroform, Aceton, Acetonitril or Dimethylsulfoxid.
Data set [2] is described as follows: Krafft temperature (solubility temperature of a 1 wt% aqueous solution) by turbidity measurement, with and without added salt. The data set is classed as physicochemical. The source says: Als Maß für die Löslichkeit und Salzempfindlichkeit wurden die Krafft-Punkte in Abwesenheit von Salzen sowie bei unterschiedlichen Salzkonzentrationen herangezogen.
Allgemein kann die Krafft-Temperatur eines Tensids als die Löslichkeitstemperatur einer 1 Gew. %igen Lösung definiert werden, da die CMC generell weit unterhalb dieser Konzentration liegt (R. G. Laughlin, The Aqueous Phase Behavior of Surfactants, Academic Press, San Diego, 1994, p. 108). Dementsprechend wurde zur Bestimmung der Krafft-Temperatur von ChDS eine 1 gew. - %ige Lösung eingewogen. Zur Untersuchung des Einflusses von Salzen auf den Krafft-Punkt wurden 1 gew% - igen Lösungen von ChDS verschiedene Mengen an Natriumchlorid (Merck, p.a.) bzw. Cholinchlorid (Sigma-Aldrich, min. 98%) zugesetzt und die zugehörige Löslichkeitstemperatur gemessen.
Präzise Löslichkeitstemperaturen wurden aus Trübungsmessungen gemäß des in S. Schrödle, R. Buchner, W. Kunz, Fluid Phase Equilib., 2004, 216, 175-182 beschriebenen Verfahrens erhalten. Hierzu wurden alle untersuchten Proben bis zum Auftreten eines Niederschlags abgekühlt und anschließend mit einer Rate von 5°C pro Stunde wieder aufgeheizt.
Die Salzempfindlichkeit wurde durch Messung der Krafft-Temperatur bei unterschiedlichen Salzkonzentrationen untersucht.

For the next data set, the system named is SK-MEL 28-Zellen. Put plainly: MTT assay (Mosmann) cytotoxicity on SK-MEL 28 cells. The data set is classed as cell-based, human. As to conditions: 72 h at 37°C, at least 5 independent measurements, high values mean low toxicity. The source says:
(§1) Die Zytotoxizität und Hautverträglichkeit von ChDS im Vergleich zu anderen gängigen anionischen Tensiden wurden mittels in-vitro Tests an HeLa-Zellen (humane Gebärmutterhalskrebszellen) und SK-MHL 28 Zellen (humane Melanom-Zellen) getestet. Dieses etablierte in vitro Verfahren ist in N. Vlachy, D. Touraud, J. Heilmann, W. Kunz, Colloids and Surfaces B: Biointerfaces, 2009, 70, 278 - 280 beschrieben und bietet eine gute Alternative zu den in vivo Draize-Augenirritationstests.
(§2) Die Zellen wurden von der American Type Culture Collection (ATCC) zur Verfügung gestellt. Die Kultivierung der HeLa-Zellen erfolgte in Earle's minimum essential medium (MEM) mit 0.85 g/l Natriumhydrogencarbonat, zusätzlich versetzt mit fötalem Kälberserum (10%), L-Glutamin (2mM), nichtessentiellen Aminosäuren (1%), Amphotericin B ([…]) und Penicillin G/Streptomycin Sulfat (100u/ml). Die SK - MEL 28 - Zellen wurden in einer 1:1 Mischung aus Dulbecco's MEM mit 4.5 g/l Natriumhydrogencarbonat sowie LGlutamin und Pyrovat und HAM'S F-12 Medium mit 1.176 g/l Natriumhydrogencarbonat und stabilem Glutamin, versetzt mit 10% fötalem Kälberserum, kultiviert.
(§3) Die Inhibitionskonzentration an Testsubstanz, welche zu einer Reduktion an lebenden Zellen um 50% im Vergleich zu einer unbehandelten Kontrolle führt (IC 50), wurde via MTT-Assay nach Mosmann festgestellt.
(§4) Hierzu wurden in der ersten Spalte einer 96-Well-Platte je 15 µl an wässriger Testsubstanzlösung mit 135 µl Medium durchmischt. Je 75 µl dieser Mischung wurden abgenommen und in der zweiten Spalte mit 75 µl Medium verdünnt. Diese Prozedur wurde bis zur vollständigen Füllung der Platte von Spalte zu Spalte wiederholt. Anschließend wurden in jedem Well 11250 Zellen in 75 µl Medium angesät. Die so vorbereiteten Platten wurden 72 Stunden bei 37°C im Brutschrank aufbewahrt.
(§5) Danach wurden 15 µl MTT - Lösung zu jedem Well gegeben und für weitere 4 Stunden inkubiert. Im Anschluss wurde die überstehende Lösung abgetrennt und der reduzierte MTT-Bodensatz jeweils mit 150 µl 10%iger Natrumdodecylsulfat-Lösung versetzt. Nachdem die Platten über Nacht unter Lichtausschluss stehen gelassen wurden, wurde die Absorption der Lösungen bei 560 nm mittels einem TECAN Spectra Fluor Plus microplate reader bestimmt. Nach Mittelung an zwei Einzelmessungen konnte aus den sich ergebenden Dosis-Wirkungskurven der entsprechende IC 50 Wert errechnet werden. Angegebene Werte der Inhibitionskonzentration errechnen sich aus mindestens 5 unabhängigen Messungen.
In general terms: Formazan colour is commonly taken as a measure of viable cells.

Data set [3] is described as follows: Surface tension of aqueous surfactant solutions, ring method (Krüss Tensiometer K100). Type of data set: physicochemical. As to conditions: 25°C, aqueous solution, value reached starting from ca. 70 mN/m for water (Figur 3). As to the method: Die Herabsetzung der Grenzflächenspannung von Wasser durch Zugabe an Tensid ist ein wichtiges Maß für die Effizienz eines Tensids. Die Oberflächenspannung von wässrigen ChDS- und SDS- Lösungen wurde anhand der Ringmethode mit einem Krüss Tensiometer K100 vermessen. Figur 3 zeigt die gemessene Grenzflächenspannung bei einer Temperatur von 25°C in Abhängigkeit von der Konzentration.

Another data set has as its system HeLa-Zellen. Briefly: MTT assay (Mosmann) cytotoxicity on HeLa cells. The data set is classed as cell-based, human. As to conditions: 72 h at 37°C, at least 5 independent measurements, high values mean low toxicity.
Description: as §1, §2, §3, §4, §5

For data set [4] the following is noted: cited from earlier work; for TKr (Krafft-Temperatur): literature values of comparison substances, references (1)-(3); for Löslichkeitstemperatur in Wasser: water, literature or background statement.
For another data set, the system named is Ratten-Gliom-Zellen. As to conditions: rat glioma cells, cited from earlier work.

For `CCCCCCCCCCCCOS(=O)(=O)O` [ChDS, Cholindodecylsulfat], the “Löslichkeit in organischen Lösungsmitteln” value in data set [1] is “gut löslich”. For the same molecule, the “TKr (Krafft-Temperatur)” value in data set [2] (1 wt% aqueous solution, no salt, turbidity measurement) was 0 °C. Moreover, the “Anstieg der Krafft-Temperatur” value in data set [2] (NaCl:surfactant ratio of 1:1, 1 wt% solution (Figur 1, Figur 2)) was around 7 °C. In addition, in data set [2] (water, found by the applicant), the “in Wasser löslich bis (Temperatur)” value was below 0 °C. Besides, the IC50 with SK-MEL 28-Zellen (Homo sapiens, SK-MEL-28, 72 h) is 430 ± 20 µM; with HeLa-Zellen (Homo sapiens, HeLa, 72 h), 404 ± 4 µM. Also, the “Grenzflächenspannung von Wasser” value in data set [3] is “ca. 37 mN/m”.
Take `CCCCCCCCCCCC(=O)O` [NaCl2, Natriumlaurat]: the half-maximal inhibitory concentration (IC50) in the data set with SK-MEL 28-Zellen came to 420 ± 10 µM; with HeLa-Zellen, 230 ± 10 µM. The “TKr (Krafft-Temperatur)” value in data set [4] was 25°C^(2).
Take `C[N+](C)(C)CCO` [Cholin, (2-Hydroxyethyl)trimethylammonium]: the “Toxizität geringer im Vergleich zu Tetramethylammonium (TMA), Faktor” value with Ratten-Gliom-Zellen (factor of lower toxicity versus TMA) is recorded as 5,5. For the same molecule, in the data set on Ratten-Gliom-Zellen (fold lower toxicity versus tetrabutylammonium), the “Toxizität geringer im Vergleich zu Tetrabutylammonium, -fach” value was above 500.
With `CCCCCCCCCCCC(=O)O` [KC12, Kaliumlaurat], the IC50 in the data set with SK-MEL 28-Zellen (Homo sapiens, SK-MEL-28, 72 h) was determined as 400 ± 10 µM; with HeLa-Zellen (Homo sapiens, HeLa, 72 h), 234 ± 5 µM. In data set [4], the “TKr (Krafft-Temperatur)” value was 10°C^(3).
`CCCCCCCCCCCCOS(=O)(=O)O` [SDS, Natriumdodecylsulfat]: the “Löslichkeit in organischen Lösungsmitteln” value in data set [1] is recorded as “nur geringe Löslichkeit”. Besides, the IC50 with SK-MEL 28-Zellen was 320 ± 30 µM; with HeLa-Zellen, 270 ± 10 µM. Further, in data set [3], the “Grenzflächenspannung von Wasser” value is on record as “ca. 36 mN/m”. In addition, the “TKr (Krafft-Temperatur)” value in data set [4] is 16°C^(1). The “Löslichkeitstemperatur in Wasser” value in data set [4] was 12-25 °C.
Turning to `CCCCCCCCCCCCOS(=O)(=O)O` [Tetramethylammoniumdodecylsulfat], in data set [4], the “Löslichkeitstemperatur in Wasser” value was below 0 °C.
As to `CCCCCCCCCCCCOS(=O)(=O)O` [KDS, Kaliumdodecylsulfat], in data set [4], the “TKr (Krafft-Temperatur)” value is 40°C^(1).
As to `CCCCCCCCCCCC(=O)O` [ChCl2, Cholinlaurat], the results for the half-inhibitory concentration (IC50) with SK-MEL 28-Zellen and with HeLa-Zellen were 360 ± 10 µM and 305 ± 6 µM, respectively. For the same molecule, the “TKr (Krafft-Temperatur)” value in data set [4] is <0°C^(3).

The IC50 is the concentration needed to halve the response being measured.
